The values below come from patent US20240239813A1, “KRAS INHIBITORS AND PHARMACEUTICAL USES THEREOF” (RISEN (SUZHOU) PHARMA TECH CO., LTD., priority 2022, published 2024).

For series [1], the system named is phosphorylation of p-ERK1/2 in AsPC-1. The series can be described thus: Cellular phospho-ERK inhibition, AsPC-1. The format is cell-based. The settings on record: Homo sapiens, ASPC1; AsPC-1, 4 hours. The method, then:
(§1) The ability of exemplary test compounds to inhibit the phosphorylation of p-ERK1/2, which is the downstream effector of KRas in multiple human cancer cell lines such as AsPC-1 (Cobioer, CBP60546), GP2D (Cobioer, CBP60683), NCI-H358 (Cobioer, CBP60544), NCI-H727 (Cobioer, CBP60182), MKN-1 (Cobioer, CBP60486), HCT116 (ATCC, CCL-247), and HT-29 (Cobioer, CBP60011), was measured. Signal reflecting cell proliferation was detected with the Advanced phospho-ERK (Thr202/Tyr204) cellular kit (Cisbio, 64AERPEG).
(§2) Cells were cultured in the growth phase and 3×10^4 cells per well were plated in a 96-well plate (Corning, 3599). Cells were incubated 24 hours at 37° C. and 5% carbon dioxide in a humidity chamber. Serially diluted exemplary compounds were added to the cell plate which was then incubated for another 4 hours in a humid tray at 37° C. and 5% carbon dioxide. 1× Lysis buffer (Cisbio, 64AERPEG) was prepared at ambient temperature. Cell culture medium was removed, then lysis buffer (50 μL/well) was added to the cell plate and the plate was incubated at room temperature for 30 minutes on a shaker. […] The luminescent signal was measured on the VICTOR Nivo multimode plate reader according to the manufacturer's instructions. […]
(§3) IC50 was determined by fitting percent inhibition at each inhibitor concentration to the four-parameter nonlinear logistic equation using GraphPad Prism. […]

In series [2] the test system is phosphorylation of p-ERK1/2 in NCI-H358. As to the kind of experiment: Cellular phospho-ERK inhibition, NCI-H358. The settings on record: Homo sapiens; NCI-H358, 4 hours. It counts as cell-based. Here is the method:
as §1, §2, §3

Series [3] relates to phosphorylation of p-ERK1/2 in MKN-1. The series can be described thus: Cellular phospho-ERK inhibition, MKN-1. It counts as cell-based. The following applies: Homo sapiens; MKN-1, 4 hours. The method, then:
as §1, §2, §3

Series [4] deals with phosphorylation of p-ERK1/2 in GP2D. As to the kind of experiment: Cellular phospho-ERK inhibition, GP2D. The following applies: Homo sapiens, 4 hours. The format is cell-based. The method, then: as §1, §2, §3
The test system of series [5] is phosphorylation of p-ERK1/2 in NCI-H727. The series can be described thus: Cellular phospho-ERK inhibition, NCI-H727. It counts as cell-based. The following applies: Homo sapiens; NCI-H727, 4 hours. Here is the method: as §1, §2, §3
The subject of series [6] is phosphorylation of p-ERK1/2 in HCT-116. As to the kind of experiment: Cellular phospho-ERK inhibition, HCT-116. The format is cell-based. The following applies: Homo sapiens; HCT-116, 4 hours. The method, then: as §1, §2, §3
The test system of series [7] is phosphorylation of p-ERK1/2 in HT-29. As to the kind of experiment: Cellular phospho-ERK inhibition, HT-29. The format is cell-based. The settings on record: Homo sapiens; HT-29, 4 hours. Here is the method:
as §1, §2, §3

The subject of a further series is HCT-116. As to the kind of experiment: Cell proliferation assay (CellTiterGlo), HCT-116. The format is cell-based. The settings on record: Homo sapiens, HCT-116, 72 hours. Here is the method:
(§4) A cell proliferation assay was used to evaluate inhibition by exemplary compounds. Proliferation assays used human tissue derived cancer cell lines, for example, AsPC-1 (Cobioer, CBP60546), GP2D (Cobioer, CBP60683), NCI-H358 (Cobioer, CBP60544), NCI-H727 (Cobioer, CBP60182), MKN-1 (Cobioer, CBP60486), HCT116 (ATCC, CCL-247), and HT-29 (Cobioer, CBP60011). Signal reflecting cell proliferation was detected with the CellTiterGlo kit (Promega, G7573).
(§5) Cells were cultured in the growth phase and 3×10^3 cells per well were plated in a 96-well plate (Greiner, 655090). Cells were incubated 24 hours at 37° C. and 5% carbon dioxide in a humidity chamber. […] After 10 minutes incubation at room temperature to stabilize the signal, the luminescent signal was measured on the VICTOR Nivo multimode plate reader according to the manufacturer's instructions. […]
(§6) (where the “Maximum Signal” are wells containing DMSO without inhibitor; the “Minimum Signal” are signal of wells recorded at Day 0 prior to commencement of the experiment; the “Test compound signal” are wells containing inhibitor at established concentrations).
(§7) IC50 was determined by fitting percent inhibition at each inhibitor concentration to the four-parameter nonlinear logistic equation using GraphPad Prism. […] “-”: means without measuring; and “ND” means not detected.

Series [8] in a line: Microsomal stability assay, human liver microsomes. It counts as in vitro ADME. The settings on record: pooled human liver microsomes, 0.5 mg/mL protein. Here is the method: (§8) Test results from this assay were used to determine the metabolic liabilities of test compounds and allow focus on the improvement of drug candidates through structure-activity relationships. Pooled mouse/rat/human liver microsomes were used for this assay
(§9) In vitro mouse (CD-1, BioIVT)/rat (SD, RILD)/human (Corning) liver microsomal suspensions at 0.5 mg/mL protein and 1.3 mM NADPH, 3.3 mM MgCl2 were pre incubated at 37° C. for 3 mins prior to addition of 0.1 mM test compound solution to give a final incubation concentration of 1 μM. Samples were incubated for 0, 15, 30, 60 minutes at 37° C. on a shaker (the positive control substance was cultured for 0 or 60 minutes). At the end of each incubation time both incubated and control samples were quenched with ice-cold stop solution containing internal standard. All samples were mixed by a plate shaker at 800 rpm for 5 minutes, then centrifuged at 4100 rpm for 15 minutes at 4° C. to precipitate protein. Supernatant was transferred to another 96-well plate, dilution solution was added to each supernatant well, and then each bioanalysis plate was sealed. The samples were mixed by plate shaker at 800 rpm for 5 minutes and then centrifuged at 4° C., 4100 rpm for 5 minutes. All samples were stored at 4° C. before LC-MS/MS analysis.
(§10) The peak area ratio was converted to the remaining percentages (% Remaining) using the following formula: […]
(§11) where % Remaining is the compound ratio (compound peak area/internal standard peak area) as a percentage of the 0 minute time point.
(§12) The ln remaining percent of test articles were plotted against time and the gradient of the line determined; the gradient was converted to elimination rate constant by using the following formula:
(§13) Elimination rate constant(ke)=−gradient
(§14) Half time (T1/2) was determined using following formula: […]
(§15) Hepatic intrinsic clearance (CLint(liver)) was determined by using the following formulas: […]
(§16) The Intrinsic clearance of selected compounds is depicted in Table 6.
A general note: Microsomes from liver hold many membrane-bound enzymes, among them those of drug oxidation.

A further series has as its system NCI-H358. As to the kind of experiment: Cell proliferation assay (CellTiterGlo), NCI-H358. The format is cell-based. The following applies: Homo sapiens, NCI-H358, 72 hours. The method, then:
as §4
(§17) Cells were cultured in the growth phase and 3×10^3 cells per well were plated in a 96-well plate (Greiner, 655090). Cells were incubated 24 hours at 37° C. and 5% carbon dioxide in a humidity chamber. Serially diluted exemplary compounds were added to the plate which was then incubated for another 72 hours. Plates were brought to room temperature and an equal volume of CellTiterGlo reagent was added. After 10 minutes incubation at room temperature to stabilize the signal, the luminescent signal was measured on the VICTOR Nivo multimode plate reader according to the manufacturer's instructions. The signal was converted to percent inhibition using the following formula: […]
as §6
(§18) IC50 was determined by fitting percent inhibition at each inhibitor concentration to the four-parameter nonlinear logistic equation using GraphPad Prism. IC50 (nM) values of selected compounds are depicted in Table 4. “-”: means without measuring; and “ND” means not detected.
On the technique in general: In ATP-based viability assays light output follows the ATP content of the culture.

A short description of series [9]: Microsomal stability assay, rat liver microsomes. The following applies: SD, pooled rat liver microsomes, 0.5 mg/mL protein. The format is in vitro ADME. Here is the method: as §8, §9, §10, §11, §12, §13, §14, §15, §16
The subject of a further series is AsPC-1. The series can be described thus: Cell proliferation assay (CellTiterGlo), AsPC-1. The settings on record: Homo sapiens, ASPC1, AsPC-1, 72 hours. The format is cell-based. The method, then: as §4, §17, §6, §18
For a further series, the system named is MKN-1. As to the kind of experiment: Cell proliferation assay (CellTiterGlo), MKN-1. The format is cell-based. The settings on record: Homo sapiens, MKN-1, 72 hours. The method, then: as §4, §17, §6, §18
A further series relates to HT-29. As to the kind of experiment: Cell proliferation assay (CellTiterGlo), HT-29. The format is cell-based. The following applies: Homo sapiens, HT-29, 72 hours. The method, then: as §4, §5, §6, §7
The nature of series [10]: Microsomal stability assay, mouse liver microsomes. It counts as in vitro ADME. The settings on record: CD-1, pooled mouse liver microsomes, 0.5 mg/mL protein. The method, then:
as §8, §9, §10, §11, §12, §13, §14, §15, §16

The subject of the next series is GP2D. The series can be described thus: Cell proliferation assay (CellTiterGlo), GP2D. The format is cell-based. The settings on record: Homo sapiens, 72 hours. Here is the method: as §4, §17, §6, §18
The subject of the next series is NCI-H727. The series can be described thus: Cell proliferation assay (CellTiterGlo), NCI-H727. The format is cell-based. The following applies: Homo sapiens, NCI-H727, 72 hours. The method, then: as §4, §17, §6, §18

SMILES strings stand for the structures. Bounds are passed on as bounds.

By IC50 is commonly meant the concentration at which inhibition is half-maximal. In the case of `CCc1c(F)ccc2cc(O)cc(-c3ncc4c(N5CCCC6(CCO6)C5)nc(OC[C@@]56CCCN5C[C@H](F)C6)nc4c3F)c12` (some centres unmarked) [Compound 25], the IC50 in [1] was 17.4 nM; in series [2], 83.7 nM; in [3], 8.25 nM; in series [4], 3.36 nM; in series [5] it was 110 nM; in [6], 173 nM. In addition, in series [7], the IC50 is above 1000 nM.

One may read the CLint scaled as the rate of metabolic loss divided by the concentration. Turning to `CCc1c(F)ccc2cc(O)cc(-c3ncc4c(N5CCCC(C)(O)C5)nc(OC[C@@]56CCCN5C[C@H](F)C6)nc4c3F)c12` (some centres unmarked) [Compound A1, reference compound], the half-maximal inhibitory concentration (IC50) with HCT-116 was 1430 nM; in the series on NCI-H358 it was 152 nM; in the series with AsPC-1, 161 nM; in the series on MKN-1, 144 nM; in the series on HT-29, 7730 nM; in the series on GP2D it was 15.7 nM. The compound also showed a concentration for half-maximal inhibition (IC50) in the series on NCI-H727 of 130 nM. The intrinsic clearance (CLint scaled) at 1 μM in [8] was 46 mL/min/kg; in series [9], 111 mL/min/kg; in series [10], 1180 mL/min/kg.
